Measured values as given in patent publication US12102685B2, “Immodulator peptides covalently modified with small molecules” (priority 2020, dated 2024).
Marks after values point to notes of the source that are not given here. Ends that are not written are not given here. * marks the point of attachment. RG108 = O=C1c2ccccc2C(=O)N1[C@@H](Cc1c[nH]c2ccccc12)C(=O)*

Tests used:
[1] = tested on: THP1-Dual monocytes; assay: Succinic acid in THP1-Dual supernatant (x4A); type: cell-based; conditions: no peptide
Experimental: (§1) Immune modulation functions of immodulator peptides were measured using the monocyte reporter cell line THP1-Dual (Invivogen, San Diego, CA), which provides convenient readouts for STING and NF-kappa-B pathways. Optionally, succinic acid, cytokine and chemokine production were also measured. THP1-Dual cell line was obtained from Invivogen. Cells were grown in a T-75 flask in RPMI Medium containing 20% fetal bovine serum, blasticidin ([…]), zeocin ([…]) and penicillin-streptomycin at 37° C. in a humidified, 5% CO2 incubator. Cells ([…], 8,000 cells/well) were plated in a 96-well plate and incubated overnight at 37 °C in a humidified, 5% CO2 incubator. Next day, […] of compounds were added (quadruplicate wells). After 24 hour incubation with the compound, supernatants were harvested and stored at 4° C. prior to assay.
(§2) STING activity using reagents QuantiBlu and QuantiLuc respectively, according to the manufacturer's recommendations (Invivogen, San Diego, CA). Succinic acid was measured by using a kit from Megazyme Inc (Cambridge, MA). Control value of activity was set to 100 in each assay. […] PAM3C=25 ng/ml PAM3CSK4 (TLR1/2 inducer); Poly(I:C)=10 ug/ml (TLR3 inducer); PAM2C=25 ng/ml PAM2CSK4 (TLR2/6 inducer); KIN14=4 uM KIN-1400 (RIG-I inducer); cytB=1 uM cytosporone B (Nur77 inducer); C-178=1 uM STING inhibitor; NFkBi=50 ug/ml NFkB inhibitor peptide; SB2021=10 uM p38MAPK inhibitor; *p<0.05, **p<0.01 vs IM3 control; #p<0.01 vs “no inducer” control; SUCC=succinic acid; nd=not done; Peptide was added to cells at 400 nM.
(§3) Peptides were added to cells at 400 nM. […]

[2] = tested on: NF-kappa-B (NFkB); assay: THP1-Dual monocyte reporter, NF-kappa-B readout (x4A); type: cell-based; conditions: no peptide
Experimental: as §1
(§4) Each cell supernatant was assayed in quadruplicate. 20 uL of supernatant was used to measure NF-kappa-B (NFkB) and
as §2, §3

[3] = tested on: A375 cells; assay: A375 cell viability, CellTiterGlo (x10A); type: cell-based; conditions: 72 hours
Experimental: (§5) Immune modulation functions of immodulator peptides have great potential untility in the field of cancer. A375 cell line was obtained from American Type Culture Collection (ATCC). They were grown in a T-75 flask in DMEM Medium containing 10% fetal bovine serum and penicillin-streptomycin at 37° C. in a humidified, 5% CO2 incubator. Cells ([…], 2,000 cells/well) were plated in a 96-well plate and incubated overnight at 37° C. in a humidified, 5% CO2 incubator. Next day, […] of compounds were added (quadruplicate wells). After 72 hour incubation with the compound, cell viability was measured in a luminometer after the addition of […] CellTiterGlo reagent (Promega Inc, Madison, WI) as recommended by the manufacturer.
Experiment x10A. Anti-cancer activity of immodulator peptides on A375 cells. A 96-well plate was seeded with 2,000 A375 cells per well in DMEM medium containing 10% FBS and PenStrep. After 24 hrs at 37 deg C., compounds and peptides were added (each treatment done in quadruplicate). After a further 72 hours incubation, 100 uL/well of CTG assay reagent purchased from Promega Inc. (Madison, WI) was added. Plate was read after 10 minutes, as recommended by the manufacturer. Peptides were added at 2 uM. The results of this experiment are shown below, expressed as percent survival ofA375 cells.

[4] = tested on: STING; assay: THP1-Dual monocyte reporter, STING readout (x4A); type: cell-based; conditions: no peptide
Experimental: as §1, §4, §2, §3

[5] = tested on: COL1 in HFF-1 dermal fibroblasts; assay: Collagen-1 ELISA in HFF-1 dermal fibroblasts (x11A); type: cell-based; conditions: peptide 2 uM, 72 hour; control (buffer) = 100
Experimental: as §5, with “have” for “have great”, “cosmetics. HFF-1” for “cancer. A375”, “Cells” for “They”, “compound, supernatants were collected for Collagen-1 ELISA assay and” for “compound,”
Collagen stimulating activity of immodulator peptides in HFF-1 dermal fibroblasts. Peptides were added to cells at 2 uM. COL1 immunoreactivity was measured in the supernatants of cultured cells by ELISA using a rabbit monoclonal anti-COL1 primary antibody (Abcam, Cambridge, MA). Control (buffer) value of immunoreactivity was set to 100.

[6] = Competition binding assay to metal-charged NTA-coated plates (x2B b); conditions: PBS on calcium = 100
Experimental: NTA-metal-affinity fluorescence assay was performed using 96-well NTA-metal-coated plates readily available from commercial sources such as Qiagen (Germantown, MD). NTA was charged with ferrous or ferric iron, zinc, copper, calcium, vanadium, ruthenium, cobalt, titanium, manganese or other metals. 400 ng of FITC-labeled immodulator peptide (or biotinylated immodulator peptide complexed to Alexa-488-labeled streptavidin) in PBS buffer was added per plate. After incubation at room temperature for 60 minutes, excess peptide was washed off and peptide was detected by measuring fluorescence (excitation 490 nm, emmission 525 nm) in a fluorometer. • (a) Using FITC-labeled IM3 peptide (1 ug/well) in the fluorescent binding assay: • EDTA-treated control: 2,251±1,186 • Ferrous iron: 170,441±11,264 (p<0.001)* • Copper: 13,644±5566 (p<0.05)* • Calcium: 48,822±11,990 (p<0.01)* • *p values are relative to EDTA-treated control • (b) Competition binding assay to ferrous iron, calcium, copper and zinc-charged NTA-coated plates using FITC-labeled IM3 peptide (0.5 uM) and 8× (4 uM) unlabelled competitor peptides IM3N1, IM3N2 (*all comparisons to PBS control are p<0.01); # fluorescent value of binding to […] was set at 100.

[7] = KIN1400 alone, IM3 + KIN1400 = 100
[8] = 25 ng/ml PAM2CSK4 alone, IM3 + PAM2C = 100
[9] = 25 ng/ml PAM3CSK4 alone, control = 100

Oc1c(C(Nc2nc3ccccc3s2)c2ccc(OC(F)F)cc2)ccc2cccnc12 (stereo not shown) [KIN1400, KIN-1400, reference compound]
SUCC [1, 7]: 100.1 | NFkB ([2]; KIN1400 (RIG-I agonist) alone, IM3 + KIN1400 = 100): 90.1 | percent survival of A375 cells ([3]; Kin1400 4 uM alone, no peptide): 100.7% | STING [4, 7]: 84.3**

(rg108)-KKGFYKKKQCRPSKGRKRGFCW (RG108-KKGFYKKKQCRPSKGRKRGFCW; cysteine pairing not given here) [IM3rg8, IM3 N-terminally conjugated with RG108]
percent survival of A375 cells ([3]; peptide 2 uM + Kin1400 4 uM (RIG-I agonist)): 105.8% | percent survival of A375 cells ([3]; peptide 2 uM, Buffer): 89.9** percent

AFNSYELGSKGFYKKKQCRPSKGRKRGFCW [IM3K9]
COL1 immunoreactivity in supernatant [5]: 155**

AFNSYELGSKGFYKKKQCRPSKGRKRGFCWAVDKY [IM3K9c]
COL1 immunoreactivity in supernatant [5]: 158**

AFNSYELGSKKGFYKKKQCRPSKGRKRGFCW [IM3K9.1]
COL1 immunoreactivity in supernatant [5]: 156**

FNSYELGSLKKGFYKKKQCRPSKGRKRGFCW [IM3K8]
COL1 immunoreactivity in supernatant [5]: 98

PAM2CSK4 [reference compound]
SUCC [1, 8]: 121.5* | NFkB [2, 8]: 118.7** | STING [4, 8]: 144.5**

PAM3CSK4 [reference compound]
NFkB [2, 9]: 326 # | STING [4, 9]: 342 #

TGPSESYLQLEELVKQVVSKGFYKKKQCRPSKGRKRGFCW [IM3N2]
FITC-IM3 fluorescence with competitor ([6]; Calcium, 0.5 uM FITC-IM3, 8x (4 uM) unlabelled competitor): 12.9 ± 1.2* | FITC-IM3 fluorescence with competitor ([6]; Copper, 8x (4 uM) unlabelled competitor): 5.1 ± 1.0* | FITC-IM3 fluorescence with competitor ([6]; Ferrous iron, 8x (4 uM) unlabelled competitor): 25.2 ± 9.5* | FITC-IM3 fluorescence with competitor ([6]; Zinc, 8x (4 uM) unlabelled competitor): 13.4 ± 1.6*
